Assay results from ChEMBL document CHEMBL5154870, “Discovery of novel glutaminase 1 allosteric inhibitor with 4-piperidinamine linker and aromatic heterocycles” (Eur J Med Chem, 2022).

Key:
[1] = target: T1, Glutaminase kidney isoform, mitochondrial (Mus musculus, UniProt D3Z7P3); test: Inhibition of GLS1 in mouse brain assessed as inhibition of glutamate production using glutamine as substrate incubated for 1 hr by coupled assay; assay type: tissue-based
T1 sequence (D3Z7P3 whole entry): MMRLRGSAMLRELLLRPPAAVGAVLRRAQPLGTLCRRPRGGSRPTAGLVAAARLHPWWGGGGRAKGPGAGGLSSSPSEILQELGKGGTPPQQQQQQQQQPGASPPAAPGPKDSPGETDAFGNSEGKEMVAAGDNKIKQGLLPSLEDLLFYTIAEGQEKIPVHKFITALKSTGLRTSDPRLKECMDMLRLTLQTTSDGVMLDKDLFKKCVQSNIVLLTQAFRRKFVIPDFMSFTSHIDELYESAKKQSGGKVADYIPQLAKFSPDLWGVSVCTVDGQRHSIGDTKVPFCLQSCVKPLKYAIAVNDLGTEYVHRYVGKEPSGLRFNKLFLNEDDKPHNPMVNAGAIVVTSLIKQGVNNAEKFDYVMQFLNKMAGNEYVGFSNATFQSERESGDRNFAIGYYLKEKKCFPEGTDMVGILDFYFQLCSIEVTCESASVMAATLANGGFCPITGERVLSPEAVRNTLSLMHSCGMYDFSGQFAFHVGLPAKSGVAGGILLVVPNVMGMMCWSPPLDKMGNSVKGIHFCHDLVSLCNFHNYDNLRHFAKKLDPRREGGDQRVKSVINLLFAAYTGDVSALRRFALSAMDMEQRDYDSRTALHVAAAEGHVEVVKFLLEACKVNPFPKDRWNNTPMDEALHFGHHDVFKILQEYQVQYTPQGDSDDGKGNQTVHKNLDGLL

[2] = Metabolic stability in human plasma assessed as parent compound remaining at 1 uM measured after 2 hrs by LC-MS/MS analysis; assay type: ADME, cell-free; conditions: read-out: Stability
[3] = Metabolic stability in human liver microsomes assessed as intrinsic clearance at 10 uM by LC-MS/MS analysis; assay type: ADME, Microsome; conditions: read-out: CLH
HCT-116 [4] = test: Antitumor activity against human HCT-116 cells xenografted in BALB/c SPF mouse assessed as tumor growth inhibition at 100 mg/kg, ip administered BID for 21 days; assay type: functional; conditions: time 21 day
[5] = target: T1, Glutaminase kidney isoform, mitochondrial; test: Inhibition of GLS1 in mouse kidney assessed as inhibition of glutamate production using glutamine as substrate incubated for 1 hr by coupled assay; assay type: tissue-based
[6] = Metabolic stability in human liver microsomes assessed as parent compound remaining at 10 uM measured after 60 mins by LC-MS/MS analysis; assay type: ADME, Microsome; conditions: microsomes, 1 h, 10 µM
[7] = Metabolic stability in human liver microsomes assessed as half life at 10 uM by LC-MS/MS analysis; assay type: ADME, Microsome
MDA-MB-436 = test: Antiproliferative activity against human MDA-MB-436 cells overexpressing GLS1 assessed as inhibition of cell proliferation measured after 72 hrs by MTT assay; assay type: functional, cell-based; conditions: MDA-MB-436, 72 h
CT26 = test: Antiproliferative activity against mouse CT26 cells overexpressing GLS1 assessed as inhibition of cell proliferation measured after 72 hrs by MTT assay; assay type: functional, cell-based; conditions: CT26, 72 h
H22 = test: Antiproliferative activity against mouse H22 cells assessed as inhibition of cell proliferation measured after 72 hrs by MTT assay; assay type: functional, cell-based; conditions: H22, 72 h
[8] = Metabolic stability in human liver microsomes assessed as parent compound remaining at 10 uM measured after 30 mins by LC-MS/MS analysis; assay type: ADME, Microsome; conditions: microsomes, 0.5 h, 10 µM
[9] = target: T2, Glutaminase kidney isoform, mitochondrial (Homo sapiens, UniProt O94925); test: Binding affinity to human GLS1 assessed as dissociation constant by surface plasmon resonance analysis
T2 sequence (O94925 whole entry): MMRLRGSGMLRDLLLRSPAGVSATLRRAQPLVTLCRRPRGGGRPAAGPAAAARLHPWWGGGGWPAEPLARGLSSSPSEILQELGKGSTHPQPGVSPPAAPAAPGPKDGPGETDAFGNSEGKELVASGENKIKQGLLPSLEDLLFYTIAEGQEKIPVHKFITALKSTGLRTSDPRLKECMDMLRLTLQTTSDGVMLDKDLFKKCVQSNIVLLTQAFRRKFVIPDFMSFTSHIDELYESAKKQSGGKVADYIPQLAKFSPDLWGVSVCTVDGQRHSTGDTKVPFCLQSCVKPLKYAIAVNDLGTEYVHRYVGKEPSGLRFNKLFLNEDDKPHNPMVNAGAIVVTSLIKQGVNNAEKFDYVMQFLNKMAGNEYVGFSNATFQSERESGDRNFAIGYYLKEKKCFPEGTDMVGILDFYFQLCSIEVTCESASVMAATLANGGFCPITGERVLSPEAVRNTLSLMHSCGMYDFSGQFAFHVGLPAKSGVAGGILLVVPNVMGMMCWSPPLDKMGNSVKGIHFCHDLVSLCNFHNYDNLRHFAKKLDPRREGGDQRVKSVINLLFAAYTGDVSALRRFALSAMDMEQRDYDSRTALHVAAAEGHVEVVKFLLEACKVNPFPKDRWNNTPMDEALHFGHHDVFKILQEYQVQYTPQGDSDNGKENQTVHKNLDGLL

[10] = target: T3, Glutaminase kidney isoform, mitochondrial (Homo sapiens) (UniProt O94925); conditions: filed as negative allosteric modulator
T3 sequence (whole entry): T2 sequence (O94925 whole entry)
Description: Binding affinity to human GLS1 assessed as stabilization of protein by measuring change in melting temperature by protein thermal shift assay

HCT-116 [11] = test: Antiproliferative activity against human HCT-116 cells overexpressing GLS1 assessed as inhibition of cell proliferation measured after 72 hrs by MTT assay; assay type: functional, cell-based; conditions: HCT-116, 72 h
[12] = target: T2, Glutaminase kidney isoform, mitochondrial; test: Allosteric inhibition of human GLS1 using glutamine as substrate incubated for 60 mins by NADH/NADPH-based absorbance analysis

Row | IC50 [1] | remaining at 2 h, 1 µM [2] | microsomal CLint at 10 µM [3] | IC50 [5] | Stability [6] | t1/2 ([7]; microsomes, 10 µM) | IC50 (MDA-MB-436) | IC50 (CT26) | Stability [8] | Kd [9] | ΔTm [10] | IC50 (HCT-116 [11]) | half-life at 10 µM ([7]; liver microsomes) | IC50 [12] | Compound | TGI (HCT-116 [4]) | IC50 (H22)
1 | 20 nM | 85% | 19.5 µL/min/mg | 20 nM | 89% | 1.524 h | 410 nM | 420 nM | 98% | – | – | – | – | – | O=C(Cc1cccc(OC(F)(F)F)c1)Nc1ccc(CCCCc2nnc(NC(=O)Cc3ccccn3)s2)nn1 | 50.6% | 1340 nM
2 | – | 98% | 5.57 µL/min/mg | – | – | – | 620 nM | – | – | 81 nM | 15.2 °C | 160 nM | 5.21 h | 19.3 nM | CO[C@H](C(=O)Nc1nnc(NC2CCN(c3nnc(NC(=O)CCc4cn(-c5ccc(C(F)(F)F)cc5)nn4)s3)CC2)s1)c1ccccc1 | – | –
